From the supplement of paper PMC10702517
± gives the standard deviation.

Assays:
[1] = chemical recovery by SPE of plasma after PDMS sampling; higher = better extraction; settings: pooled human plasma, extraction method: HLB SPE of plasma after PES
[2] = chemical recovery from spiked human plasma; higher = better extraction; settings: pooled human plasma
[3] = extraction method: SPE only (HLB 96-well)
[4] = extraction method: PES+SPE (3 d PDMS equilibration then HLB SPE)
[5] = extraction method: solvent precipitation (ACN + hexane)
[6] = extraction method: SPE only (HLB 96-well), PES comparison experiment
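Throughout, for chemical recovery by SPE of plasma after PDMS sampling: over 400 spiked chemicals quantified by LC-HRMS or GC-HRMS via internal standard calibration, recovery relative to spike mix added to unspiked plasma extract to correct matrix effects.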

Row | Structure (SMILES) | chemical recovery by SPE of plasma ([1]; equilibration time (d): 3) [%] | chemical recovery by SPE of plasma ([1]; equilibration time (d): 6) [%] | chemical recovery [2, 3] [%] | chemical recovery [2, 4] [%] | chemical recovery [2, 5] [%] | chemical recovery by SPE of plasma ([1]; equilibration time (d): 1) [%] | chemical recovery [2, 6] [%]
1 | C1=Cc2cccc3cccc1c23 [Acenaphthylene] | 10.5 ± 4.6 | 2.28 ± 8 | 3.51 ± 0.93 | – | – | – | –
2 | CC1=CC(=O)NS(=O)(=O)O1 [Acesulfame] | 1.86 ± 0.99 | 8.53 ± 4.2 | 19.4 ± 5.8 | 11.2 ± 1.4 | 93.4 ± 4.7 | – | –
3 | CC(=O)Nc1ccc(S(=O)(=O)Nc2cc(C)on2)cc1 [Acetyl-sulfamethoxazole] | 51.4 ± 3.5 | 49.3 ± 6.2 | 37.2 ± 3.4 | 42.7 ± 3.9 | 72 ± 3.1 | 51.7 ± 7.1 | 51.5 ± 4.3
4 | CCCSc1ccc2[nH]c(NC(=O)OC)nc2c1 [Albendazole] | 3.53 ± 0.36 | 2.28 ± 0.42 | 35.7 ± 3.7 | 3.61 ± 0.98 | 59.7 ± 5.1 | 5.86 ± 0.39 | 37.8 ± 5.9
5 | CCCCCCCCCCCCCC(=O)NCCC[N+](C)(C)CCCS(=O)(=O)[O-] [Amidosulfobetaine-14] | 26.1 ± 6.5 | 25.2 ± 4.2 | – | – | 74.8 ± 5 | 25.7 ± 5.3 | 36 ± 9.4
6 | COc1cc(OC)nc(NC(=O)NS(=O)(=O)N(C)S(C)(=O)=O)n1 [Amidosulfuron] | 49.1 ± 5.5 | 45.9 ± 6.6 | 41 ± 4.5 | 46.6 ± 16 | 70.2 ± 3.1 | 46.5 ± 7.7 | 49.1 ± 5.6
7 | CC(C)N1C(=O)c2ccccc2NS1(=O)=O [Bentazone] | 58 ± 4.1 | 54.7 ± 3.1 | 41.7 ± 3.2 | 44.5 ± 3.6 | 75.2 ± 2.8 | 54.8 ± 8.1 | 63.8 ± 5.6
8 | c1ccc2cc3c(ccc4ccccc43)cc2c1 [Benz(a)anthracene] | 8.41 ± 7.3 | 4.31 ± 7.5 | 1.06 ± 0.29 | – | 20.2 ± 2.8 | – | –
9 | Nc1ccc(-c2ccc(N)cc2)cc1 [Benzidine] | 6.11 ± 1.1 | 3.81 ± 0.98 | 13.2 ± 2 | 0.64 ± 0.073 | 38.3 ± 7.4 | 6.25 ± 0.9 | 5.89 ± 3
10 | c1ccc2c(c1)cc1ccc3cccc4ccc2c1c34 [Benzo(a)pyrene] | – | – | 4.36 ± 4 | – | 99.1 ± 12 | 1.26 ± 1.1 | –
11 | c1ccc2c(c1)c1cccc3ccc4cccc2c4c31 [Benzo(e)pyrene] | 1.37 ± 1.2 | 1.06 ± 1.8 | 2.35 ± 0.68 | – | 57.7 ± 6.1 | 1.45 ± 1.3 | –
12 | COc1cc(O)c(C(=O)c2ccccc2)cc1S(=O)(=O)O [Benzophenone-4] | 48.7 ± 3.4 | 43.3 ± 4.4 | 43.3 ± 3.8 | 45.5 ± 3.2 | 72.2 ± 2.3 | 41 ± 11 | 44.4 ± 4.8
13 | CCCCCCCCCCCC[N+](C)(C)Cc1ccccc1 [Benzyldimethyldodecylammonium] | 43.2 ± 10 | – | – | – | – | 39.1 ± 6.7 | 46.5 ± 13
14 | O=C(O)c1cc(Oc2ccc(Cl)cc2Cl)ccc1[N+](=O)[O-] [Bifenox free acid] | 40.7 ± 16 | – | 30.6 ± 3.6 | 38.2 ± 3.9 | 65.8 ± 3.1 | – | 36.6 ± 6.7
15 | Oc1c(Br)cc(Cl)cc1Cc1cc(Cl)cc(Br)c1O [Bromochlorophen] | – | – | 28.9 ± 6 | 34.8 ± 6.3 | 34.9 ± 2 | 34.8 ± 10 | 32.3 ± 8
16 | CCCCCOC(=O)Nc1nc(=O)n([C@@H]2O[C@H](C)[C@@H](O)[C@H]2O)cc1F [Capecitabine] | 48.6 ± 5.5 | 44.2 ± 1.7 | – | – | – | 44.1 ± 5.1 | 47.5 ± 7.2
17 | O=C(O)COCCN1CCN(C(c2ccccc2)c2ccc(Cl)cc2)CC1 (stereo unspecified) [Cetirizine] | 52.3 ± 5.3 | 47.7 ± 2.9 | 50.9 ± 2.3 | 69.9 ± 7.9 | – | 47.2 ± 6.6 | 48.6 ± 6.5
18 | CC[C@H]1OC(=O)[C@H](C)[C@@H](O[C@H]2C[C@@](C)(OC)[C@@H](O)[C@H](C)O2)[C@H](C)[C@@H](O[C@@H]2O[C@H](C)C[C@H](N(C)C)[C@H]2O)[C@](C)(OC)C[C@@H](C)C(=O)[C@H](C)[C@@H](O)[C@]1(C)O [Clarithromycin] | 24.4 ± 2.8 | 22.3 ± 2.2 | 45.1 ± 2.3 | 30.2 ± 4.1 | 69.1 ± 2.1 | 22 ± 3.3 | 44.1 ± 6.5
19 | CC(C)(Oc1ccc(Cl)cc1)C(=O)O [Clofibric acid] | 58.7 ± 6.2 | 51.5 ± 4.8 | 44.7 ± 2.7 | 44.8 ± 1.8 | 66.6 ± 7.9 | 53.1 ± 9.5 | 61 ± 5.4
20 | CC[N+](CC)(CC(=O)Nc1c(C)cccc1C)Cc1ccccc1 [Denatonium] | 57.1 ± 3.3 | 54.9 ± 6.9 | 38.4 ± 3.9 | 50.8 ± 2.9 | 71.9 ± 3.3 | 56.4 ± 6.3 | 49.9 ± 3.3
21 | Cc1cccc(C)c1NC(=O)CS(=O)(=O)O [Dimethachlor CGA369-873] | 23.6 ± 2.8 | 28.2 ± 8.7 | 40.3 ± 3.8 | 42.4 ± 2.5 | 79.6 ± 8.1 | – | 45.2 ± 5

Row | Structure (SMILES) | chemical recovery by SPE of plasma ([1]; equilibration time (d): 3) [%] | chemical recovery by SPE of plasma ([1]; equilibration time (d): 6) [%] | chemical recovery [2, 3] [%] | chemical recovery [2, 4] [%] | chemical recovery [2, 5] [%] | chemical recovery by SPE of plasma ([1]; equilibration time (d): 1) [%] | chemical recovery [2, 6] [%]
22 | COCC(C)N(C(=O)CS(=O)(=O)O)c1c(C)csc1C (stereo unspecified) [Dimethenamid ESA] | 51.4 ± 4.4 | 45.4 ± 4.1 | – | – | – | 45.5 ± 8.5 | 49.6 ± 3.4
23 | COCC(C)N(C(=O)C(=O)O)c1c(C)csc1C (stereo unspecified) [Dimethenamid OA] | 58.9 ± 3.8 | 51.8 ± 2.6 | – | – | – | 52.2 ± 8.1 | 51.7 ± 4.2
24 | COC(=O)c1cc(C(=O)OC)cc(S(=O)(=O)O)c1 [Dimethyl-5-sulfoisophthalate] | 54.2 ± 3.9 | 49.3 ± 4 | 45.3 ± 3 | 44.6 ± 2.1 | 46.7 ± 3.3 | 49.8 ± 6.7 | 52.4 ± 4.3
25 | O=P(O)(Oc1ccccc1)Oc1ccccc1 [Diphenylphosphate] | 56 ± 6.6 | 49.8 ± 8.2 | 44.6 ± 4.8 | – | – | 46.4 ± 13 | 47 ± 7
26 | O=c1[nH]c2ccccc2n1CCCN1CCC(n2c(=O)[nH]c3cc(Cl)ccc32)CC1 [Domperidone] | 46.3 ± 3.7 | 42.3 ± 4.4 | – | – | – | 44.4 ± 5.1 | 44.6 ± 4.9
27 | CCOC(=O)[C@H](CCc1ccccc1)N[C@@H](C)C(=O)N1CCC[C@H]1C(=O)O [Enalapril] | 47 ± 2.3 | 44.9 ± 4.6 | 36.2 ± 1.4 | 42.2 ± 3.9 | 70.5 ± 3.8 | 43.2 ± 7.6 | 37.8 ± 5.6
28 | CC[C@H]1OC(=O)[C@H](C)[C@@H](O[C@H]2C[C@@](C)(OC)[C@@H](O)[C@H](C)O2)[C@H](C)[C@@H](O[C@@H]2O[C@H](C)C[C@H](N(C)C)[C@H]2O)[C@](C)(O)C[C@@H](C)C(=O)[C@H](C)[C@@H](O)[C@]1(C)O [Erythromycin] | 11.9 ± 6.8 | 6.49 ± 3.8 | 10.9 ± 8.2 | 4.25 ± 0.61 | 66 ± 3.4 | – | 3.18 ± 1.2
29 | COc1cc([C@@H]2c3cc4c(cc3[C@@H](O[C@@H]3O[C@@H]5CO[C@@H](C)O[C@H]5[C@H](O)[C@H]3O)[C@H]3COC(=O)[C@H]23)OCO4)cc(OC)c1O [Etoposide] | 40.9 ± 6.5 | 38.4 ± 0.53 | – | 54.9 ± 4.7 | 35.5 ± 10 | 36.8 ± 3.4 | –
30 | C[C@@H]1C[C@H]2[C@@H]3C[C@H](F)C4=CC(=O)C=C[C@]4(C)[C@@]3(F)[C@@H](O)C[C@]2(C)[C@@]1(O)C(=O)CO [Flumethasone] | 51.4 ± 1.9 | 44.3 ± 2.9 | – | – | – | 46.8 ± 5.2 | 47.9 ± 6.4
31 | NS(=O)(=O)c1cc(C(=O)O)c(NCc2ccco2)cc1Cl [Furosemide] | 70.9 ± 4.3 | 66.2 ± 5.9 | 48.4 ± 7.2 | 44.9 ± 5.1 | 69.3 ± 6.1 | 55.5 ± 12 | 50 ± 6.5
32 | NCC1(CC(=O)O)CCCCC1 [Gabapentin] | – | 0.00483 ± 0.0084 | 14.7 ± 7.2 | – | – | – | 0.0969 ± 0.19
33 | O=c1c(-c2ccc(O)cc2)coc2cc(O)cc(O)c12 [Genistein] | 50 ± 4.5 | 47 ± 3.7 | 49.1 ± 3.9 | 55.5 ± 1.2 | 48.3 ± 10 | 46.2 ± 7.8 | 46.4 ± 4
34 | COc1ccc(Cl)cc1C(=O)NCCc1ccc(S(=O)(=O)NC(=O)NC2CCCCC2)cc1 [Glibenclamide] | 43.4 ± 2.1 | 38 ± 3.8 | – | – | 74.9 ± 2.6 | – | 42.1 ± 7
35 | CCC1=C(C)CN(C(=O)NCCc2ccc(S(=O)(=O)NC(=O)NC3CCC(C)CC3)cc2)C1=O (stereo unspecified) [Glimepiride] | 45.2 ± 1.8 | 42.1 ± 3 | 32 ± 1.9 | 36.8 ± 4.8 | 71.4 ± 5.3 | 46.6 ± 3.4 | 42.6 ± 4.8
36 | NC(=O)N=C(N)N [Guanylurea] | 0.581 ± 0.1 | 0.912 ± 0.18 | – | – | – | 0.503 ± 1.2 | 1.06 ± 1.4
37 | COc1ccc2c(c1)c(CC(=O)O)c(C)n2C(=O)c1ccc(Cl)cc1 [Indometacin] | 41.1 ± 4.4 | 35.8 ± 3.6 | 33.3 ± 1.8 | 33.6 ± 5.2 | – | – | 31 ± 6
38 | CC(C(=O)O)c1cccc(C(=O)c2ccccc2)c1 (stereo unspecified) [Ketoprofen] | 54 ± 2.6 | 48.2 ± 2.2 | 46.1 ± 2.4 | 56.1 ± 6 | 68.4 ± 3.2 | 47.5 ± 5.5 | 53.1 ± 4.2
39 | CC(CCc1ccccc1)NCC(O)c1ccc(O)c(C(N)=O)c1 (stereo unspecified) [Labetalol] | 50.6 ± 3.4 | 44.8 ± 2.3 | 55.6 ± 8.6 | 47.4 ± 3.7 | 70.5 ± 3.8 | 46.4 ± 3.9 | 51.3 ± 4.4
40 | CN(C)C(=O)C(CCN1CCC(O)(c2ccc(Cl)cc2)CC1)(c1ccccc1)c1ccccc1 [Loperamide] | 3.93 ± 0.72 | 2.64 ± 0.097 | – | – | 73.1 ± 3.5 | 3.98 ± 0.26 | 50.8 ± 7.4
41 | CCCCc1nc(Cl)c(CO)n1Cc1ccc(-c2ccccc2-c2nnn[nH]2)cc1 [Losartan] | 50.8 ± 2.6 | 46.7 ± 1.6 | 41.2 ± 2.9 | 44.5 ± 4.3 | 77.2 ± 3.6 | 44.8 ± 3.8 | 40.8 ± 7.5
